# Molecular target: T1, human full-length HSP90 (Homo sapiens, UniProt P08238)
# T1 construct: E. coli expressed human full-length HSP90 protein, purified >95%; made in house; host or cells: E. coli
# Assay: Fluorescence Polarisation Assay (competitive displacement of probe RBT0045864-FAM from HSP90)
# Type: binding
# Conditions: E. coli expressed human full-length Hsp90 200 nM; probe RBT0045864-FAM 80 nM; read-out: Hsp90 FP IC50
# Excerpt: Fluorescence Polarization Assay
# Fluorescence polarization {also known as fluorescence anisotropy} measures the rotation of a fluorescing species in solution, where the larger molecule the more polarized the fluorescence emission. When the fluorophore is excited with polarized light, the emitted light is also polarized. The molecular size is proportional to the polarization of the fluorescence emission. The fluoroscein-labelled probe—RBT0045864-FAM—binds to HSP90 {full-length human, full-length yeast or N-terminal domain HSP90 } and the anisotropy {rotation of the probe-protein complex} is measured.
# Compound is added to the assay plate, left to equilibrate and the anisotropy measured again. Any change in anisotropy is due to competitive binding of compound to HSP90, thereby releasing probe.
# Chemicals are of the highest purity commercially available and all aqueous solutions are made up in AR water. • 1) Costar 96-well black assay plate #3915 • 2) Assay buffer of (a) 100 mM Tris pH7.4; (b) 20 mM KCl; (c) 6mM MgCl2. Stored at room temperature. • 3) BSA (bovine serum albumen) 10 mg/ml (New England Biolabs # B9001S) • 4) 20 mM RBT0045864 (pyrazole) in 100% DMSO stock concentration. Stored in the dark at RT. Made in-house, Kd^˜[…], depending on the protein used. Working concentration is 200 nM diluted in AR water and stored at 4° C. Final concentration in assay 80 nM. • 5) E. coli expressed human full-length HSP90 protein, purified >95% (see, e.g., Panaretou et al., EMBO J., Vol. 17, pp. 4829-4836, 1998) and stored in 50 μL aliquots at −80° C. Protocol • 1) Add 100 μl 1× buffer to wells 11A and 12A (=FP BLNK) • 2) Prepare assay mix—all reagents are kept on ice with a lid on the bucket as the probe is light-sensitive.
# • 3) Aliquot 100 μl assay mix to all other wells • 4) Seal plate and leave in dark at room temp for 20 minutes to equilibrate Compound Dilution Plate—1×3 Dilution Series • 1) In a clear 96-well v-bottom plate—{# VWR 007/008/257} add 10 μl 100% DMSO to wells B1 to H11 • 2) To wells A1 to A11 add 17.5 μl 100% DMSO • 3) Add 2.5 μl cpd to A1. This gives 2.5 mM {50×} stock cpd—assuming cpds 20 mM. • 4) Repeat for wells A2 to A10. Control in columns 11 and 12. • 5) Transfer 5 μl from row A to row B—not column 12. Mix well. • 6) Transfer 5 μl from row B to row C. […] In column 11 {provides standard curve} only add compound B11-H11. Add 2 μl of 100 mM standard cpd to wells B12-H12 {is positive control}
# The Z′ factor is calculated from zero controls and positive wells. It typically gives a value of 0.7-0.9.
# T1 sequence (P08238 whole entry): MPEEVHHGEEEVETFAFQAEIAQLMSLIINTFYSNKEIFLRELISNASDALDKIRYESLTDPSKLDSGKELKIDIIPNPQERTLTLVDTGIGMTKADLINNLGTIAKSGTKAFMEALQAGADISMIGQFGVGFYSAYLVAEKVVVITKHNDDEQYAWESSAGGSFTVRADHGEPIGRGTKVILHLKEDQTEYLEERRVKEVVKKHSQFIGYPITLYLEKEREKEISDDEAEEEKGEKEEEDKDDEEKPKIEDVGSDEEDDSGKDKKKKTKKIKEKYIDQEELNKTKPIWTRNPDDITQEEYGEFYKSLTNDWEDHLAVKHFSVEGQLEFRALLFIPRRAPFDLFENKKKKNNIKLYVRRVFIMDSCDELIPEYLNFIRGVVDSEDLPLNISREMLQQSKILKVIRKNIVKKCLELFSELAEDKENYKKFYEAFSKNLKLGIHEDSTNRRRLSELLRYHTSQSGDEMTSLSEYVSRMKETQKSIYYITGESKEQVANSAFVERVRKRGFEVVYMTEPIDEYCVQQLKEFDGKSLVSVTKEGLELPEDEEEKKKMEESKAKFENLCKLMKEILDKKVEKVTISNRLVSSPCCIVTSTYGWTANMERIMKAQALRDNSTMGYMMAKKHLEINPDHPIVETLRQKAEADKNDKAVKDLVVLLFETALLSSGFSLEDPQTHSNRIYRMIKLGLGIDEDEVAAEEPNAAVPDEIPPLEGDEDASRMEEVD
row,IC50,SMILES
1,< 10 µM,CCNC(=O)[C@@H](C)NC(=O)c1[nH]nc(-c2cc(Cl)c(O)cc2O)c1-c1ccc(OC)cc1 [Example 18]
2,< 10 µM,COC(=O)[C@H](C)NC(=O)c1[nH]nc(-c2cc(Cl)c(O)cc2O)c1-c1ccc(OC)cc1 [Example 8]
3,< 10 µM,COC(=O)CNC(=O)c1[nH]nc(-c2cc(Cl)c(O)cc2O)c1-c1ccc(OC)cc1 [Example 6]
4,< 10 µM,COc1ccc(-c2c(-c3cc(Cl)c(O)cc3O)n[nH]c2C(=O)N[C@@H](C)C(N)=O)cc1 [Example 10]
5,< 10 µM,COc1ccc(-c2c(-c3cc(Cl)c(O)cc3O)n[nH]c2C(=O)N[C@H](C)C(=O)N2CCN(C)CC2)cc1 [Example 12]
6,< 10 µM,COc1ccc(-c2c(-c3cc(Cl)c(O)cc3O)n[nH]c2C(=O)NC(C)C(=O)O)cc1 (stereo not shown) [Example 4]
7,< 10 µM,COC(=O)C(C)NC(=O)c1[nH]nc(-c2cc(Cl)c(O)cc2O)c1-c1ccc(OC)cc1 (stereo not shown) [Example 3]
8,< 10 µM,COc1ccc(-c2c(-c3cc(Cl)c(O)cc3O)n[nH]c2C(=O)N[C@H](C)C(=O)NCCN2CCOCC2)cc1 [Example 16]
9,< 10 µM,COC(=O)[C@@H](C)NC(=O)c1[nH]nc(-c2cc(Cl)c(O)cc2O)c1-c1ccc(OC)cc1 [Example 7]
10,< 10 µM,COc1ccc(-c2c(-c3cc(Cl)c(O)cc3O)n[nH]c2C(=O)N[C@H](C)C(=O)NCCN(C)C)cc1 [Example 15]
11,< 10 µM,CNC(=O)[C@@H](C)NC(=O)c1[nH]nc(-c2cc(Cl)c(O)cc2O)c1-c1ccc(OC)cc1 [Example 13]
12,< 10 µM,COc1ccc(-c2c(-c3cc(Cl)c(O)cc3O)n[nH]c2C(=O)N[C@H](C)C(=O)NC(C)C)cc1 [Example 14]
13,< 10 µM,COc1ccc(-c2c(-c3cc(Cl)c(O)cc3O)n[nH]c2C(=O)N[C@H](C)C(N)=O)cc1 [Example 9]

# From US7632855B2, “Pyrazole compounds as HSP90 inhibitors for the treatment of cancer” (Vernalis (Cambridge) Limited, priority 2003, dated 2009)
